Assay results taken from PubChem BioAssay (NCI).
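96-well plates; 48 h exposure; 5 concentrations. Endpoints by linear interpolation between flanking doses. Not reached: highest tested concentration assigned. GI50: concentration for 50% inhibition of growth. TGI: concentration producing complete growth inhibition.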

Tests used:
Experiment in all cases: growth of human tumour cells (NCI), 48 h
M14 melanoma = test system: M14 melanoma
SF-268 CNS = test system: SF-268 CNS
IGROV1 ovarian = test system: IGROV1 ovarian
CAKI-1 renal = test system: CAKI-1 renal
SNB-19 CNS = test system: SNB-19 CNS
NCI-H460 lung = test system: NCI-H460 lung
MOLT-4 leukemia = test system: MOLT-4 leukemia
TK-10 renal = test system: TK-10 renal
LOX IMVI melanoma = test system: LOX IMVI melanoma
HCT-116 colon = test system: HCT-116 colon

| SMILES | TGI (M14 melanoma) | TGI (SF-268 CNS) | TGI (IGROV1 ovarian) | TGI (CAKI-1 renal) | TGI (SNB-19 CNS) | TGI (NCI-H460 lung) | TGI (MOLT-4 leukemia) | TGI (TK-10 renal) | TGI (LOX IMVI melanoma) | TGI (HCT-116 colon) | GI50 (LOX IMVI melanoma) | GI50 (M14 melanoma) | GI50 (SF-268 CNS) | GI50 (IGROV1 ovarian) | GI50 (HCT-116 colon) | GI50 (SNB-19 CNS) | GI50 (NCI-H460 lung) | GI50 (MOLT-4 leukemia) | GI50 (TK-10 renal) | GI50 (CAKI-1 renal) |
| --- | --- | --- | --- | --- | --- | --- | --- | --- | --- | --- | --- | --- | --- | --- | --- | --- | --- | --- | --- | --- |
| O=[N+]([O-])c1ccccc1C1N2CCCCC2[C@@H]2c3[nH]c4ccccc4c3CCN12 (some centres not stated) | 26.7 µM | 27.4 µM | 40.9 µM | 29.9 µM | 33.4 µM | 34.7 µM | 28.1 µM | 38.4 µM | – | – | – | – | – | – | – | – | – | – | – | – |
| Cc1nc(C(N)=S)sc1C(=O)/C=C/c1cccc(O)c1 | – | > 100 µM | > 100 µM | > 100 µM | – | > 100 µM | > 100 µM | > 100 µM | > 100 µM | – | – | – | – | – | – | – | – | – | – | – |
| COC(=O)C1=C(C(=O)OC)C2(C(=O)OC)OC1(OC)C(C1(C(=O)OC)C(C(=O)OC)=C1C(=O)OC)=C2C(=O)OC (configuration not stated) | > 100 µM | > 100 µM | > 100 µM | – | > 100 µM | > 100 µM | > 100 µM | > 100 µM | > 100 µM | > 100 µM | – | – | – | – | – | – | – | – | – | – |
| Fc1ccccc1C1CC(C(c2ccccc2)c2ccccc2)=Nc2ccccc2S1 (configuration not stated) | 25.7 µM | 26.1 µM | 28.8 µM | 20.1 µM | 32.2 µM | 23.2 µM | 11 µM | 25.2 µM | 19.7 µM | – | – | – | – | – | – | – | – | – | – | – |
| COC(=O)C1(Cc2cccc(Cl)c2)CCCCCCN1C(=O)c1ccccc1 (configuration not stated) | 45 µM | 42.1 µM | 45.5 µM | – | 31.2 µM | 33.8 µM | 32.1 µM | 29.5 µM | 32.8 µM | 29.7 µM | – | – | – | – | – | – | – | – | – | – |
| CC#CC(=O)N1CCC[C@H]1c1nc(-c2ccc(C(=O)Nc3ccccn3)cc2)c2c(N)nccn12 | > 100 µM | > 100 µM | > 83.8 µM | – | > 100 µM | > 100 µM | > 100 µM | > 100 µM | > 100 µM | > 100 µM | 98.5 µM | 56.5 µM | 52.7 µM | 18 µM | > 76 µM | > 79.9 µM | 89.5 µM | 44.3 µM | 21.1 µM | – |
| C=C(C)[C@H]1CC/C(C)=C/CCC(C)C(=O)CC/C(CO)=C\[C@@H]1O (some centres not stated) | > 100 µM | > 100 µM | > 100 µM | > 100 µM | – | > 100 µM | > 100 µM | > 100 µM | > 100 µM | > 100 µM | 57.3 µM | 87.7 µM | 88.9 µM | > 100 µM | 97.4 µM | – | 58.8 µM | 56.6 µM | 70.8 µM | 65.9 µM |
| CCN(CC)CCCNC(=O)Cc1ccccc1Nc1c(Cl)cccc1Cl | 7.88 µM | 31.2 µM | 36.5 µM | – | 31.8 µM | – | 28 µM | 26.8 µM | 25.6 µM | 27.2 µM | – | – | – | – | – | – | – | – | – | – |
| C/C(=N\Nc1ccc([N+](=O)[O-])cc1)C(=O)N(C)Nc1ccccc1 | > 100 µM | – | > 100 µM | – | > 100 µM | > 100 µM | > 100 µM | > 100 µM | > 100 µM | – | – | – | – | – | – | – | – | – | – | – |
| COC1=C(OC)CCC(/C(C#N)=C/c2ccc(OC)c(OC)c2)=C1 | > 100 µM | > 100 µM | > 100 µM | > 100 µM | – | > 100 µM | > 100 µM | 98 µM | > 100 µM | > 100 µM | – | – | – | – | – | – | – | – | – | – |
